Broadly, the EC50 is the concentration that produces a half-maximal response. A word on the half-life: it is the time in which the quantity being followed falls by half. As a reminder, the AUC is the area under the concentration-time curve, a measure of exposure. For orientation: AUC(0-inf) means the area under the concentration-time curve extrapolated to infinity. Broadly, the clearance is a measure of how efficiently the substance is removed, as volume per time. A lower clearance goes with inefficient removal.

One data set addresses Serotonin 5-HT2A (human) (Homo sapiens (Human), UniProt P28223). The experiment in a line: 5-HT2A receptor binding, [3H]-ketanserin competition in membrane fractions. As to conditions: 1 nM [3H]-ketanserin, Cheng-Prusoff, N=1-3.
A further data set deals with 5-HT2A (Homo sapiens (Human), UniProt P28223). The experiment in a line: 5-HT2A Gq-mediated calcium flux functional assay. Type of data set: cell-based. In general terms: Calcium flux is commonly read through the fluorescence of an indicator in the cells.
In another data set the target is 5-HT2B (Homo sapiens (Human), UniProt P41595). The experiment in a line: 5-HT2B Gq-mediated calcium flux functional assay. The data set is classed as cell-based.
Sequence of 5-HT2B (P41595 whole entry): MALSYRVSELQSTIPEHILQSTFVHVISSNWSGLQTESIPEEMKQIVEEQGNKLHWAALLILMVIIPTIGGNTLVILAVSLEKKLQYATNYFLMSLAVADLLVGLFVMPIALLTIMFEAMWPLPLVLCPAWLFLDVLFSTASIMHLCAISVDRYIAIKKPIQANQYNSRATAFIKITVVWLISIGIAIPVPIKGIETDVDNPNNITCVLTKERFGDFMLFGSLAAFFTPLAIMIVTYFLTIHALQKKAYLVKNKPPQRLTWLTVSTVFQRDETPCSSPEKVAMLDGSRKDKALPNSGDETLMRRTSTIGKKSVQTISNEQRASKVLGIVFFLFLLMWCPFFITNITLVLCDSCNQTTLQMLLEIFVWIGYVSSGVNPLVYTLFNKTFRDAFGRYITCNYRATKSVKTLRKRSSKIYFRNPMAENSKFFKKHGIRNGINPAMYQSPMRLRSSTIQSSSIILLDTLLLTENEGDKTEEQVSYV
In another data set the target is 5-HT2C (Homo sapiens (Human), UniProt P28335). Put plainly: 5-HT2C Gq-mediated calcium flux functional assay. Type of data set: cell-based.
Sequence of 5-HT2C (P28335 whole entry, looked up): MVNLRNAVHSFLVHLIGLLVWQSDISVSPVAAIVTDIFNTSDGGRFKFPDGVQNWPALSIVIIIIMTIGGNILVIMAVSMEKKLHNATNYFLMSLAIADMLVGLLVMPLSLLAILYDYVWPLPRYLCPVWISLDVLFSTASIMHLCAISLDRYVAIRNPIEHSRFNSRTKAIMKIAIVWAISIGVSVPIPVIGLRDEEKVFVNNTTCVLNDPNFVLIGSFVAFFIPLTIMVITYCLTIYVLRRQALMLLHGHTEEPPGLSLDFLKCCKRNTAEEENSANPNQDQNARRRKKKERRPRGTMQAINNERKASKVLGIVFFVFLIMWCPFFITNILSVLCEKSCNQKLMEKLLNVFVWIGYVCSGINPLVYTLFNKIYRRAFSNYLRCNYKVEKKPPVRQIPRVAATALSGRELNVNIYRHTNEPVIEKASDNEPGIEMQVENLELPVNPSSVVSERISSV
The next data set concerns the target 5-HT1A (Homo sapiens (Human), UniProt P08908). Put plainly: 5-HT1A Gi/o-mediated cAMP inhibition, GloSensor assay. Type of data set: cell-based.
In the next data set the test system is C57BL/6J mice. Put plainly: Head-Twitch Response (HTR) in mice. The note with it: Mus musculus, ip, 0.5 h. The data set is classed as in vivo. On the procedure: Male C57BL/6J mice (6-8 weeks old) were obtained from Jackson Laboratories (Bar Harbor, ME) and housed in a vivarium at the University of California San Diego, an AAALAC-approved animal facility that meets all federal and state requirements for care and treatment of laboratory animals. All animal experiments were carried out in accordance with NIH guidelines and were approved by the UCSD Institutional Animal Care and Use Committee. Mice were housed up to four per cage in a climate-controlled room on a reverse-light cycle (lights on at 1900 h, off at 0700 h). Animals were provided with ad libitum access to food and water, with the exception of during behavioral testing.
Testing was conducted between 1000 and 1800 h. Head movements were recorded using a head-mounted magnet and a magnetometer coil as described in Halberstadt et al. (Psychopharmacology, 2013, 227(4):727-739). For the head mounted magnet, mice were anesthetized, an incision was made in the scalp, and a neodymium magnet was attached to the dorsal surface of the cranium using dental cement. Following a 2-week recovery period, behavioral experiments were conducted in a well-lit room. At least 7 days occurred between sessions to avoid any carryover effects. Test substances (i.e., dimethyltryptamine (DMT), diethyltryptamine (DET), psilocybin, 6-fluoro-diethyltryptamine (6-F-DET), compounds 3-4, 6, 9, 12-13, 22, 33, 41, 69, 88, 166, and 178) were administered intraperitoneally (IP) at a volume of 5 mL/kg. Mice were treated with vehicle (saline) or 6 doses of the test compound and then placed in a glass cylinder surrounded by a magnetometer coil and tested for 30 min. Coil voltage was filtered (1 kHz lowpass), digitized (20 kHz sampling rate) and saved to disk using a Powerlab/8SP with LabChart v 7.3.2 (ADInstruments, Colorado Springs, CO).
The entire 30 min recordings were examined for head twitches. Established procedures based on artificial intelligence were used to identify head twitches in the recordings (Scientific Reports, 2020, 10(1):1-12). HTR counts were analyzed using one-way analyses of variance (ANOVA), followed by post hoc pairwise comparisons between individual groups and vehicle using Dunnett's multiple comparisons test. […] Median effective doses (ED50 values) and 95% confidence intervals (95% CI) were calculated using nonlinear regression (Prism 9.0.2, GraphPad Software, San Diego, CA) (Table 4 and FIGS. 1-3).

Data set [1] can be described thus: Metabolic stability in cryopreserved human hepatocytes. Type of data set: in vitro ADME. The note with it: cryopreserved hepatocytes, human hepatocytes, 1 μM, 37° C.; for hepatocyte CLint at 1 μM: read-out: Clint (μL/min/10^6 cells). Here is the method: (§1) The metabolic stability of a test compounds were assessed by monitoring disappearance of each compound in the presence of cryopreserved hepatocytes for up to 1 hour at 37° C. Following protein precipitation and centrifugation, the samples were analyzed by UPLC-MS-MS. Test Compound stock solutions (10 mM) were diluted 1 in 100 (2 μL 10 mM DMSO stock+198 μL 50:50 acetonitrile:water) to provide a 100 μM working solution. Following addition of test compounds to buffer, samples were pre-incubated at 37° C. for 5 minutes prior to initiating the incubation by the addition of test compounds to hepatocytes (these were held at 37° C. during pre-incubation period). Aliquots were sampled at 0, 5, 10, 20, 40 and 60 min and added to ice cold acetonitrile to terminate the reaction and precipitate proteins. All samples were mixed, centrifuged, and the supernatants were analyzed by UPLC-MS-MS using a Phenomenex Luna Omega […], C18 100 Å, 50×2.1 mm column. The final incubation conditions were as follows: hepatocytes 0.5×10^6 viable cells/mL, test compound 1 μM (n=1), acetonitrile concentration<0.01% (v/v) and DMSO concentration<0.01% (v/v). The intrinsic clearance (Clint) and half-life (T1/2) values are determined from the slope of the parent depletion curve. Positive control compounds with known metabolic clearance were included (diltiazem and naloxone).

Another data set deals with human hepatocytes. The description is as above. As to conditions: qualitative statement. Type of data set: in vitro ADME. On the procedure: as §1
Data set [2] in a line: In vivo intravenous pharmacokinetic study in rats. As to conditions: rat, mean; for Vd: iv, 1 mg/kg. Details: species or system Sprague Dawley rats. On the procedure:
For the in vivo stability study described herein, 1 mg/kg of drug was administered by intravenous injection (i.e., dose volume 2 mL/kg, vehicle 5% DMSO:95% hydroxypropyl-beta-cyclodextrin (20% w/v in water)) to three male Sprague Dawley rats (˜300 g at time of dosing). Blood samples (˜240 μL) were collected via venipuncture at various time points (5, 15, 30, 60 120 240, 480 and 1,440 min) into K2EDTA-coated tubes. The samples were spun at 10,000 rpm (9,600×G) for 2 minutes. 100 μL of the resulting plasma was then collected and stored at −80° C. until analyzed by HPLC as described above.
Compound 3 administered intravenously (1 mg/kg); Vehicle: 5% DMSO, 95% 2-hydroxypropyl-β-cyclodextrin (HPBCD) (20% w/v in water); Plasma concentrations were quantified at multiple time points by UHPLC-MS-MS; N=3.

Where [3] appears, read: cAMP inhibition, 0.2 μM isoproterenol, IA = Inactive.
Setting [4] is: read-out: HTR ED50 μmol/kg (95% CI).
[5] abbreviates: read-out: HTR ED50 mg/kg (95% CI).
The mark [6] stands for this setting: male, Sprague Dawley, plasma, intravenous 1 mg/kg, N=3.

Structures are written as SMILES. Where two headings read alike, the source gives them in different places.

For `CCCN(CCc1c[nH]c2ccc(F)cc12)C1CCC1` [compound 33, N-(2-(5-fluoro-1H-indol-3-yl)ethyl)-N-propylcyclobutanamine], the “5-HT2A pKi ± SEM” value on Serotonin 5-HT2A (human) is 6.25 ± 0.003. For the same compound, the EC50 on 5-HT2A was 0.49 nM. In addition, on 5-HT2A (IA = Inactive, N=1-3), the “5-HT2A-Ca2+ FLUX Emax (% 5-HT)” value is given as 107.0 ± 1.9 % 5-HT and the “5-HT2A-Ca2+ FLUX pEC50” value is listed as 9.31 ± 0.06. The EC50 on 5-HT2B was 0.589 nM. At 5-HT2B (IA = Inactive, N=1-3), the “5-HT2B-Ca2+ FLUX Emax (% 5-HT)” value is 115.6 ± 2.2 % 5-HT and the “5-HT2B-Ca2+ FLUX pEC50” value was determined as 9.23 ± 0.07. The EC50 on 5-HT2C is 19.1 nM. Further, on 5-HT2C (IA = Inactive, N=1-3), the “5-HT2C-Ca2+ FLUX Emax (% 5-HT)” value is 105.4 ± 1.8 % 5-HT and the “5-HT2C-Ca2+ FLUX pEC50” value came out at 7.72 ± 0.05. At 5-HT1A, the midpoint of the response, the EC50, lay at 14.5 nM. For the same compound, at 5-HT1A (setting [3]), the “5-HT1A-cAMP Emax (% 5-HT)” value stood at 100.7 ± 1.3 % 5-HT and the “5-HT1A-cAMP pEC50” value is on record as 7.84 ± 0.04. Besides, in the data set on C57BL/6J mice (setting [4]), the ED50 came to 2.55 µmol/kg. For the same compound, the ED50 with C57BL/6J mice (setting [5]) worked out at 0.79 mg/kg.
With `CCCN(CCc1c[nH]c2ccc(F)cc12)C(C)CC` (stereo not shown) [compound 22, N-(2-(5-fluoro-1H-indol-3-yl)ethyl)-N-propylbutan-2-amine], on Serotonin 5-HT2A (human), the “5-HT2A pKi ± SEM” value stood at 5.97 ± 0.02. Besides, the 50% effective concentration (EC50) on 5-HT2A is 0.891 nM; on 5-HT2B, 0.813 nM; at 5-HT2C, 50.1 nM; on 5-HT1A, 324 nM. Besides, the “5-HT2A-Ca2+ FLUX Emax (% 5-HT)” value at 5-HT2A (IA = Inactive, N=1-3) is listed as 105.4 ± 1.6 % 5-HT. Also, the “5-HT2B-Ca2+ FLUX Emax (% 5-HT)” value on 5-HT2B (IA = Inactive, N=1-3) came out at 98.9 ± 1.6 % 5-HT. Besides, on 5-HT2C (IA = Inactive, N=1-3), the “5-HT2C-Ca2+ FLUX Emax (% 5-HT)” value is listed as 97.5 ± 2.6 % 5-HT. On 5-HT1A (setting [3]), the “5-HT1A-cAMP Emax (% 5-HT)” value came out at 102.90 ± 1.9 % 5-HT. Further, the ED50 in the data set with C57BL/6J mice (setting [4]) was 12.4 µmol/kg; with C57BL/6J mice (setting [5]), 3.88 mg/kg.
Turning to `C=CCN1CC[C@]23c4c5ccc(O)c4O[C@H]2C(=O)CC[C@@]3(O)[C@H]1C5` [naloxone, reference compound], in data set [1], the half-life at 1 μM is 10 min and the hepatocyte CLint at 1 μM stood at 138 µL/min/1e6 cells.
Take `CCC(C)N(C)CCc1c[nH]c2ccc(F)cc12` (stereo not shown) [Example 3, N-(2-(5-fluoro-1H-indol-3-yl)ethyl)-N-methylbutan-2-amine]: at Serotonin 5-HT2A (human), the “5-HT2A pKi ± SEM” value was 6.23 ± 0.30. The 50% effective concentration (EC50) at 5-HT2A is 3.72 nM; on 5-HT2B it was 9.12 nM; at 5-HT2C, 49 nM; on 5-HT1A, 3890 nM. For the same compound, at 5-HT2A (IA = Inactive, N=1-3), the “5-HT2A-Ca2+ FLUX Emax (% 5-HT)” value is recorded as 94.8 ± 0.8 % 5-HT. In addition, on 5-HT2B (IA = Inactive, N=1-3), the “5-HT2B-Ca2+ FLUX Emax (% 5-HT)” value turned out to be 37.5 ± 1.5 % 5-HT. In addition, the “5-HT2C-Ca2+ FLUX Emax (% 5-HT)” value on 5-HT2C (IA = Inactive, N=1-3) came to 56.0 ± 0.9 % 5-HT. Further, the “5-HT1A-cAMP Emax (% 5-HT)” value at 5-HT1A (setting [3]) came out at 83.3 ± 5.7 % 5-HT. The ED50 in the data set with C57BL/6J mice (setting [4]) amounted to 6.28 µmol/kg; with C57BL/6J mice (setting [5]) it was 1.79 mg/kg. In [1], this compound registered a half-life at 1 μM of 11 min. The hepatocyte CLint at 1 μM in data set [1] came out at 132 µL/min/1e6 cells. Moreover, the “metabolism by human hepatocytes” value in the data set on human hepatocytes was “rapidly metabolized”. The compound further came in with an exposure (AUC) in [2] (setting [6]) of 594 ng·h/mL. Also, in [2] (setting [6]), the area under the curve AUC(0-inf) worked out at 597 ng·h/mL. The compound also returned a C0 in data set [2] (setting [6]) of 2490 ng/mL. The clearance in [2] (setting [6]) came out at 29.5 mL/min/kg. Also, the half-life in data set [2] (male, Sprague Dawley, plasma, intravenous 1 mg/kg, N=3, read-out: Half-Life (converted)) was 65.4 min; in data set [2] (intravenous 1 mg/kg, N=3), 65.4 min. Also, the Vd in data set [2] (male, Sprague Dawley, plasma, N=3, read-out: Vss) stood at 0.999 L/kg; in data set [2] (male, Sprague Dawley, plasma, N=3, read-out: Vz), 3.04 L/kg. In data set [2] (intravenous 1 mg/kg, N=3), the “AUC % Extrapolation to C0” value is on record as 27.7%. In addition, the “AUC % Extrapolation to Inf” value in data set [2] (intravenous 1 mg/kg, N=3) is on record as 0.570%.

These data come from patent US20240286998A1, “F[…], ANALOGUES THEREOF, AND METHODS USING SAME” (Saint Joseph's University, priority 2021, published 2024).
